In patent US20110118350A1, “COMPOSITION FOR PREVENTING CARDIOVASCULAR EVENT IN HIGH-RISK PATIENT” (MOCHIDA PHARMACEUTICAL CO., LTD., priority 2008, published 2011):

Experiment: Plasma OA/SA ratio in DELIS trial patients (fatty acid composition of plasma)
Assay type: in vivo, human
Conditions: for OA/SA ratio in plasma, Average: statin base drug
Source text: The ratio of oleic acid (OA) to stearic acid (SA) in plasma can be calculated by collecting blood from a patient and measuring the levels of the individual fatty acids such as OA and SA or the ratio of the individual fatty acids in the total fatty acids by, for example, gas chromatography. The OA/SA ratio can be also calculated from the individual fatty acid levels obtained by performing a clinical test item, that is, fractionation of fatty acids in total lipids which can be performed by, for example, SRL, Inc. The measurement method and calculation method are not particularly limited. The fatty acid fractionation into 24 fractions is a testing method which involves fractionating fatty acids including unsaturated fatty acids into specific 24 fractions and quantitatively determining the fractions by gas chromatography. More specifically, the plasma fatty acids are extracted by the method of, for example, Folch et al. (Folch J. et al., J. Biol. Chem. 226, 497-509 (1957)). It is possible to use tricosanoic acid (C23:0) as an internal standard, to convert each fatty acid into a methyl ester by addition of boron trifluoride and methanol, and to quantitatively determine the methyl ester of each fatty acid by measurement using a gas chromatograph such as SHIMAZU GC-17A (Shimadzu Corporation) and a capillary column such as BPX70 (with an internal diameter of 0.25 mm and a length of 30 m; SGE International Ltd.). However, this is not the sole method of the invention. This trial corresponds to a partial analysis of the results obtained in DELIS (Japan EPA Lipid Intervention Study) which is a large scale clinical trial of high purity EPA preparation which was presented in the American College of Cardiology 2005 Annual Meeting (for general information on DELIS, see Lancet, vol. 369, pp. 1090-1098 (2007)). […]

For `CC/C=C\C/C=C\C/C=C\C/C=C\C/C=C\CCCC(=O)OCC` [EPA-E, ethyl icosapentate], the “change of OA/SA ratio in plasma” value (after the administration of EPA-E) was “significant decrease”, the “OA/SA ratio in plasma, Average” value (before start of trial) was 2.96 and the “OA/SA ratio in plasma, Average” value (during whole observation period, Epadel 600 mg 3 times a day oral) was 2.78.
